Measurements taken from patent publication US8445511B2, “Quinoline or quinoxaline derivatives for treating neurodegenerative diseases” (Centre National de la Recherche Scientifique (SNRS), priority 2008, dated 2013).

Test system: fetal dopaminergic neurons in culture
Assay: Neuroprotection and differentiation of dopaminergic (TH+) neurons in primary culture of rat embryo mesencephalon (spontaneous degeneration model)
Type: cell-based
Set-up: key to Diff (qualitative assessment of neuron differentiation): + indicates that the neurons have a morphology similar to that of the control; ++ and +++ indicate the presence of neurons whose extensions are longer and more numerous than the control neurons; ++ and +++ indicate the presence of neurons whose extensions are longer and more numerous than the control neurons; − indicates that the neurons have neurites that are shorter and less numerous than the control neurons
Settings: for Diff (qualitative assessment of neuron differentiation): dopaminergic neurons in culture; for viability at 0.1 µM: Rattus norvegicus, Neuron, 192 h, read-out: % Neurons relative to the control ±SEM
Experimental: Dissection consists in extracting the embryos from the uterus of a rat at fifteen days of gestation. The brain of each embryo is then dissected under a binocular magnifier in order to extract the ventral mesencephalon.
The mesencephalons are gathered in a flask containing 2 ml of L15 medium and then mechanically dissociated (30 times), and then 5 ml of L15 medium are added. The suspension is left to rest for 8 minutes. 5 ml of the supernatant are recovered in a new flask and the cells are dissociated again (30 times). 5 ml of L15 are again added and the suspension is left to rest for 8 minutes. 5 ml of supernatant are added to the preceding. The cells thus extracted are then centrifuged for 5 minutes at 1,000 rpm. The cell pellet is taken up in Neurobasal medium supplemented with 1% B27, 1% glutamine and 1% penicillin/streptomycin mixture. The cells are then inoculated at the appropriate dilution (0.6 embryo per well on a 24-well plate and 0.4 per well on a 48-well plate). The cultures are incubated at 37° C. in a humid atmosphere enriched with 5% CO2 in a 24- or 48-well plate.
After 24 hours, two-thirds of the medium of each well is replaced by new medium enriched with the compound of the invention to test at the appropriate dilution. The medium is replaced in the same way after 4 days of culture.
At 8 days of culture, the cells are fixed by a 4% formaldehyde solution and then washed three times with PBS. The cells then undergo several immunohistochemistry procedures: • anti-tyrosine hydroxylase (TH) visualized by a secondary antibody coupled to a fluorochrome that emits in the red spectrum (Cy3). • anti-MAP2 (MAP=microtubule-associated protein) (neuron marker) visualized by a secondary antibody coupled to a fluorochrome that emits in the green spectrum (alexa488). • DAPI (4′,6-diamidino-2-phenylindole), a nuclear marker that emits in the blue spectrum.
Neuroprotection is evaluated by counting TH positive neurons directly under the microscope or MAP2 positive on images, at 15 images per well, expressed as a percentage of the untreated control. The experiments include three wells per condition. Three independent experiments are carried out under these conditions. Total neurite length per cell calculated by the Neurite Outgrowth software by Explora Nova on 20 neurons photographed independently per well gives an indication of the state of maturation of the dopaminergic neurons.
The compounds of the invention were tested on a model of spontaneous degeneration of dopaminergic neurons in culture.
This model consists of culturing cells of the ventral mesencephalon of rat embryo. This part of the brain in culture contains dopaminergic neurons and other primarily GABAergic neurons. These cultures are also composed of glial cells, namely astrocytes, oligodendrocytes and microglia. This is a model of spontaneous degeneration of dopaminergic neurons which mimics certain aspects of Parkinson's disease.
The neuroprotective effect of the compounds of the invention was evaluated by counting dopaminergic neurons (TH^+) marked by tyrosine hydroxylase (TH) immunohistochemistry after 8 days of culture. Thus the compounds were evaluated at 1 nM, 10 nM, 100 nM and 1 μM and were compared with the activity of dibutyryl cyclic AMP (db-cAMP) used as the reference product.
In order to evaluate more quantitatively the activity of the compounds of the invention, neurite growth per cell was measured using the Neurite Outgrowth software developed by Explora Nova. A minimum of 60 neurons per condition were photographed and studied, and the results were then averaged and normalized by the number of neurons considered.

[1] = 100 nM, survival of TH+ dopaminergic neurons after 8 days of culture

Structure (SMILES) | Diff (qualitative assessment of neuron differentiation) (100 nM) | viability at 0.1 µM [1] [%] | neuroprotective activity (percentage of survival of dopaminergic neurons), in words, versus reference product db-cAMP (dopaminergic neurons, 8 days of culture) | dose-response of effect on survival of dopaminergic neurons (1 nM, 10 nM, 100 nM and 1 μM, FIG. 2) | % Neurons relative to the control ±SEM [1] [%]
CCCCCCCCCCCCCCC(=O)Nc1ccc2nccnc2c1 [Compound F1, Nr-(quinoxalin-6-yl)pentadecanamide] | +++ | 125 ± 5.5 |  |  | 
CCCCCCCCCCCCCCC(=O)Nc1ccc2nc(C)cnc2c1 [Compound F2, N-(2-methylquinoxalin-6-yl)pentadecanamide] | +++ | 120 ± 3.1 |  |  | 
CCCCCCCCCCCCCCC(=O)Nc1ccc2ncc(CCCC)nc2c1 [Compound F3, N-(3-butylquinoxalin-6-yl)pentadecanamide] | ++ | 114 ± 3.8 |  |  | 
CCCCCCCCCCCCCCC(=O)Nc1ccc2nc(CCCCCC)c(CCCC)nc2c1 [Compound F4, N-(2-hexyl-3-butylquinoxalin-6-yl)pentadecanamide] | ++ | 101 ± 2.2 |  |  | 
CCCCCCCCCCCCCCCNc1ccc2nccnc2c1 [Compound G1, N-(quinoxalin-6-yl)pentadecanamine] | +++ | 131 ± 10.9 |  |  | 
CCCCCCCCCCCCCCCNc1ccc2nc(C)cnc2c1 [Compound G2, N-(2-methylquinoxalin-6-yl)pentadecanamine] | +++ | 135 ± 4.4 |  |  | 
CCCCCCCCCCCCCCCNc1ccc2ncc(CCCC)nc2c1 [Compound G3, N-(3-butylquinoxalin-6-yl)pentadecanamine] | ++ | 113 ± 7 |  |  | 
CCCCCCCCCCCCCCCNc1ccc2nc(CCCCCC)c(CCCC)nc2c1 [Compound G4, N-(2-hexyl-3-butylquinoxalin-6-yl)pentadecanamine] | ++ | 111 ± 5.3 |  |  | 
OCCCCCCCCCCCCCCCNc1ccc2nccnc2c1 [Compound G5, 15-hydroxy-N-(quinoxalin-6-yl)pentadecylamine] | ++ | 130 ± 7 |  |  | 
OCCCCCCCCCCCC#Cc1ccc2ccccc2n1 [Compound K2, 13-(quinolin-2-yl)tridec-12-yn-1-ol] | ++ | 121 ± 3.1 |  |  | 
C#CC(O)CCCCCCCCCCCCCCc1ccc2ccccc2n1 (stereo not drawn) [Compound N′3, 17-(quinolin-2-yl)heptadec-1-yn-3-ol] |  |  | equal to or greater than that of the reference product |  | 
C#CC(O)CCC#Cc1cnc2ccccc2c1 (stereo not drawn) [Compound Z1, reference compound] | − | 98.2 ± 6.3 |  | zero at all the concentrations tested | 
C#CC(O)CCCCc1cnc2ccccc2c1 (stereo not drawn) [Compound Z2, reference compound] | + | 118 ± 6.1 |  |  | 
CCCCC#Cc1cnc2ccccc2c1 [Compound Z3, reference compound] | − | 104 ± 4.2 |  |  | 
CCCC(=O)Nc1ncnc2c1ncn2[C@@H]1O[C@@H]2COP(=O)(O)O[C@H]2[C@H]1OC(=O)CCC [db-cAMP, dibutyryl cyclic AMP, reference compound] | +++ |  |  |  | 149.9 ± 3.6
